Data reported in patent US8552048B2, “Phosphoramidate alkylator prodrugs for the treatment of cancer” (Threshold Pharmaceuticals, Inc., priority 2006, dated 2013).
Where two headings read alike, the source gives them in different places.

Legend:
[1] = Pharmacokinetics after repeated administration (Q7D×3) to rats; format: in vivo; settings: rat, plasma; for clearance / AUC / Cmax / half-life / Vd: iv, TH302 in rats; for AUC: read-out: AUC; for Cmax: read-out: Cmax; for half-life: read-out: Half-Life (converted); for Vd: read-out: Vss
Procedure: Each rat received a 30 minute infusion once a week for three weeks (Q7D×3).
Br-IPM being capable of reacting with water and a number of other nucleophiles, for HPLC analysis of Br-IPM, the plasma obtained was frozen and treated with NaF and potassium oxalate.

[2] = Pharmacokinetics in Sprague-Dawley rats (single dose i.v. and p.o.); format: in vivo, male Sprague-Dawley rats; settings: male, Sprague-Dawley, rat, rats; for clearance: read-out: CL (converted); for Vd: read-out: Vss; for AUC(0-t): read-out: AUC(0-t); for Cmax: read-out: Cmax; for MRT: read-out: MRT
Procedure: Pharmacokinetic studies were performed in male CD-1 (50 mg/kg i.p. or orally (p.o.)) or female nude mice (50 mg/kg i.v. or i.p.), male Sprague-Dawley rats (1, 5, 20 and 50 mg/kg i.v. and 100 mg/kg, p.o.), beagle dogs (20 mg/kg, i.v.) and cynomologus monkeys (20 mg/kg i.v.). Plasma TH302 concentrations were analyzed using a LC/MS method and the pharmacokinetic parameters computed using a noncompartmental method. Interspecies scaling was performed according to standard methods.
TH302 was dissolved in 50% PEG400/Saline to obtain a final concentration of 25 mg/mL, and then was further diluted to yield 25, 10, 2.5 and 0.5 mg/mL formulations of TH302 (pH The formulations were prepared just before dosing. The concentration of TH302 in dosing solution was confirmed by HPLC-UV. Male Sprague Dawley rats (body weight: 200 g to 230 g) were used in this study. Before the pharmacokinetic studies, animals were randomly assigned to four treatment groups cannulated in the carotid artery for serial blood sampling. All rats were administered a single intravenous bolus dose over one minute via the tail vein. The concentrations of TH302 in plasma were determined using a high performance liquid chromatography/mass spectrometry (HPLC/MS/MS) method. […]

[3] = in vivo, iv, 1 mg/kg, 1 mg/kg i.v. bolus, MEAN
[4] = in vivo, iv, 5 mg/kg, 5 mg/kg i.v. bolus, MEAN
[5] = in vivo, iv, 20 mg/kg, 20 mg/kg i.v. bolus, MEAN
[6] = in vivo, iv, 20 mg/kg, 20 mg/kg i.v. bolus, individual animals
[7] = in vivo, iv, 50 mg/kg, 50 mg/kg i.v. bolus, MEAN
[8] = plasma, iv, 1 mg/kg, 1 mg/kg i.v. bolus, MEAN
[9] = plasma, iv, 1 mg/kg, 1 mg/kg i.v. bolus, individual animals
[10] = plasma, iv, 5 mg/kg, 5 mg/kg i.v. bolus, MEAN
[11] = plasma, iv, 5 mg/kg, 5 mg/kg i.v. bolus, individual animals
[12] = plasma, iv, 20 mg/kg, 20 mg/kg i.v. bolus, MEAN

Cn1c(COP(=O)(NCCBr)NCCBr)cnc1[N+](=O)[O-] [TH302]
AUC at 15 day ([1]; intravenous, rats, 25 mg/kg dose of TH302, read-out: drug exposure, AUC of TH302): ~2110 ng·h/mL | clearance ([1]; 12.5 mg/kg Q7D×3, Day 15): 293 mL/min/kg | AUC ([1]; 12.5 mg/kg Q7D×3, Day 15): 699 ng·h/mL | Cmax ([1]; 12.5 mg/kg Q7D×3, Day 15): 1210 ng/mL | half-life ([1]; 12.5 mg/kg Q7D×3, Day 15): 16 min | Vd ([1]; 12.5 mg/kg Q7D×3, Day 15): 8.71 L/kg | clearance ([1]; 25 mg/kg Q7D×3, Day 15): 275 mL/min/kg | AUC ([1]; 25 mg/kg Q7D×3, Day 15): 2110 ng·h/mL | Cmax ([1]; 25 mg/kg Q7D×3, Day 15): 3640 ng/mL | half-life ([1]; 25 mg/kg Q7D×3, Day 15): 18.7 min | Vd ([1]; 25 mg/kg Q7D×3, Day 15): 8.28 L/kg | clearance ([1]; 50 mg/kg Q7D×3, Day 15): 197 mL/min/kg | AUC ([1]; 50 mg/kg Q7D×3, Day 15): 3250 ng·h/mL | Cmax ([1]; 50 mg/kg Q7D×3, Day 15): 5720 ng/mL | half-life ([1]; 50 mg/kg Q7D×3, Day 15): 20.8 min | Vd ([1]; 50 mg/kg Q7D×3, Day 15): 5.84 L/kg | clearance [2, 3]: 78.2 mL/min/kg | Vd [2, 3]: 2.05 L/kg | clearance [2, 4]: 102 mL/min/kg | Vd [2, 4]: 5.09 L/kg | Vd ([2]; in vivo, iv, 5 mg/kg, 5 mg/kg i.v. bolus, individual animals): 2.51 L/kg | clearance [2, 5]: 102 mL/min/kg | Vd [2, 5]: 2.29 L/kg | clearance [2, 6]: 98.5 mL/min/kg | Vd [2, 6]: 2.29 L/kg | clearance [2, 7]: 98.5 mL/min/kg | Vd [2, 7]: 1.67 L/kg | half-life ([2]; in vivo, iv, 1 mg/kg i.v. bolus, MEAN, read-out: T1/2 (converted)): 122 min | half-life ([2]; in vivo, iv, 5 mg/kg i.v. bolus, MEAN, read-out: T1/2 (converted)): 225 min | half-life ([2]; in vivo, iv, 20 mg/kg i.v. bolus, MEAN, read-out: T1/2 (converted)): 262 min | half-life ([2]; in vivo, iv, 50 mg/kg i.v. bolus, MEAN, read-out: T1/2 (converted)): 79.2 min | bioavailability ([2]; in vivo, po, 100 mg/kg p.o., read-out: absolute oral bioavailability): 77.3% | half-life ([2]; in vivo, po, after p.o. dosing 100 mg/kg, read-out: terminal plasma t1/2 (converted)): 95.4 min | AUC(0-inf) [2, 8]: 221 ng·h/mL | AUC(0-t) [2, 8]: 217 ng·h/mL | Cmax [2, 8]: 802 ng/mL | MRT [2, 8]: 53.4 min | AUC(0-inf) [2, 9]: 178 ng·h/mL | AUC(0-t) [2, 9]: 175 ng·h/mL | clearance [2, 9]: 93.3 mL/min/kg | Cmax [2, 9]: 683 ng/mL | MRT [2, 9]: 57 min | half-life ([2]; plasma, iv, 1 mg/kg, 1 mg/kg i.v. bolus, individual animals, read-out: T1/2 (converted)): 105 min | Vd [2, 9]: 1.83 L/kg | AUC(0-inf) [2, 10]: 826 ng·h/mL | AUC(0-t) [2, 10]: 799 ng·h/mL | Cmax [2, 10]: 3820 ng/mL | MRT [2, 10]: 54 min | AUC(0-inf) [2, 11]: 732 ng·h/mL | AUC(0-t) [2, 11]: 730 ng·h/mL | clearance [2, 11]: 114 mL/min/kg | Cmax [2, 11]: 3840 ng/mL | Vd [2, 11]: 7.68 L/kg | AUC(0-inf) [2, 12]: 3310 ng·h/mL | AUC(0-t) [2, 12]: 3270 ng·h/mL | Cmax [2, 12]: 13500 ng/mL | MRT [2, 12]: 35.4 min | AUC(0-inf) ([2]; plasma, iv, 20 mg/kg, 20 mg/kg i.v. bolus, individual animals): 2920 ng·h/mL
